Experimental data from patent US20030100605A1, “Methods of treating cancer with angiogenesis inhibitors” (priority 2001, published 2003).

How the values were obtained:
[1] = Survival and toxicity after TBI and stem cell rescue in the mouse stem cell transplant model; format: in vivo, FVB mice
Text: Donors, recipients and preparative regimen. Transgenic mice expressing a human IgM Tg in the FVB background were used as the donor source of bone marrow stem cells for transplantation. The FVB strain of inbred mice is frequently utilized in the generation of transgenic animals. Marrow was collected from Tg+ mice from femurs flushed with sterile PBS. Recipients were FVB mice (Jackson Laboratory, Bar Harbor, Me.) or Tg negative littermates of the Tg positive donors, treated in groups of 5-8 animals/intervention. Recipients received total body irradiation (TBI) in an M38-1 Irradiator (Isomedix) at a dose rate of 2.7 Gy/min in a mixed/split fashion with a 3 hour interfraction interval to allow a higher dose of radiation without significant gastrointestinal toxicity. After completion of TBI, mice received stem cells via tail vein injection. The mice were maintained in a temperature controlled humidified area in autoclaved microisolator cages and fed ad libitum and provided acidified water. Mice were assessed three times weekly after stem cell infusion. These studies were approved by the Animal Care and Use Committee of the Children's Hospital of Philadelphia.
(§1) Compound (drug). TNP-470 was provided by TAP Pharmaceuticals (Deerfield, Ill.). Prior to use, TNP-470 was reconstituted in sterile saline, aliquoted and stored at −80° C. TNP-470 was used at a dose of 20-100 mg/kg given SQ three times per week beginning at day 0 or at a dose of 10-20 mg/kg/week given by continuous intraperitoneal infusion using an Alzet infusion pump (Alza Co., Palo Alto, Calif.). The continuous TNP-470 infusion began on the day prior to transplant to allow for pump implantation (see below).
Effect of TNP-470 on engraftment. Several dose levels of TNP-470 were explored to assess any effect on BM engraftment and engraftment kinetics. Immediately following lethal irradiation and tail vein injection of Tg+ BM cells, recipient mice were given either TNP-470 or saline starting on day 0. Dose schedules were also varied from a single dose at the time of stem cell infusion to an initial dose on day 0 followed by administration of TNP-470 or saline 3 times a week (Table 3). Mice were initially sacrificed on days 28-32 at all dose levels. Comparative kinetics were then further analyzed by sacrificing groups of mice at day 21, day 24, and day 28 at dose level 3.

[2] = cited from earlier work
[3] = Recovery of peripheral blood counts and marrow cellularity after stem cell rescue; format: in vivo, FVB mice
Experimental: as §1
Alzet infusion pump placement. Using sterile technique following anesthesia, a 1 cm midline abdominal incision was made and 14 day Alzet micro-osmotic pumps (0.25 μl/hr, model 1002) containing either TNP-470 or saline were placed intraperitoneally. The peritoneum and skin were then secured separately using 4.0 vicryl suture. The animals were allowed to recover overnight and then subjected to TBI and stem cell infusion on the following day.
Analysis of engraftment. […] Following cervical dislocation, BM and splenocytes were collected from recipient mice. Analysis was performed after red cell lysis with NH4Cl. For flow cytometric analysis of lymphoid engraftment, Tg IgM expressed only in B cells derived from the donor was detected by antibodies recognizing human IgM (RAHM; Jackson ImmunoResearch, West Grove, Pa.) and mouse CD45R (B220, Pharmingen, Torreyana, Calif.) in a two-color protocol on a FACS Caliber cytometer (Becton-Dickinson, Franklin Lakes, N.J.). Splenocytes from untransplanted Tg− and Tg+ mice provided negative and positive controls, respectively. Lymphoid engraftment was defined as the percentage of lymphoid cells in spleen and BM that were B220/RAHM positive. In addition to flow cytometry, genomic DNA from tail snips, blood, BM, and splenocytes was analyzed by PCR for the presence of the transgene, using a procedure and primers previously reported (15). The transgene was detectable by PCR in all donor-derived cells in the recipient, while the tail snips of Tg− mice provided a negative control. Genomic DNA was also isolated from splenic and peripheral blood T cells. Splenic T cells were isolated using the Cellect T isolation column (Biotex, Edmonton, Canada) according to the manufacturer's protocol. Peripheral blood T cells were sorted on the FACS Vantage (Becton-Dickson) after staining with antibodies recognizing mouse CD3 (Pharmingen). Recovery of peripheral blood counts was also analyzed. Blood was collected from cardiac puncture and placed in EDTA tubes (Becton-Dickson). Analysis was then performed with a HemeVet (CDC Technologies) instrument using mouse-specific parameters. Hemoglobin was measured and white blood cells (WBC) and platelets were enumerated.

[4] = tested on: human hematopoietic progenitors; experiment: In vitro bone marrow culture, colony formation in methylcellulose; format: cell-based
Experimental: In vitro bone marrow culture. Light density cells separated by density gradient centrifugation (Lymphocyte Separation Medium, ICN Pharmaceutical, Costa Mesa, Calif.) from normal human BM donors were plated in methylcellulose medium with recombinant cytokines. This medium, MethoCult GF (Stem Cell Technologies, Vancouver, Canada), contains stem cell factor 50 ng/ml, GM-CSF 10 ng/ml, IL-3 10 ng/ml and erythropoietin 3 units/ml. 5×10^4 BM cells/dish were cultured with TNP-470 at concentrations ranging from 1 mcg/ml to […], with duplicate cultures at each dose. The plates were scored after 14 days of culture, enumerating colony-forming unit granulocyte/macrophage (CFU-GM), CFU-mix, CFU-erythrocyte and burst-forming unit erythrocyte (CFU-E and BFU-E).
Effect of TNP-470 on bone marrow colony-forming cells. Although hematologic toxicity has not been described in the TNP-470 phase I trials (24, 25), there is one report of in vitro evidence of BM toxicity (16). In order to confirm this finding, we investigated the effect of relatively high concentrations of TNP-470 (0-100 μg/ml) on growth of human hematopoietic progenitors in standard methylcellulose culture. […] Although this assay is not necessarily predictive of in vivo BM toxicity, the result emphasizes the need to develop a pre-clinical model of stem cell transplantation to assess the effect of AIs on engraftment.

neuroblastoma cell lines = conditions: first administered ten days after inoculation with two different neuroblastoma cell lines; cited from earlier work

What does the source list for CO[C@@H]1[C@H](OC(=O)NC(=O)CCl)CC[C@@]2(CO2)[C@H]1[C@]1(C)O[C@@H]1CC=C(C)C [TNP-470]?
Overall survival ([1]; all dose levels, after stem cell rescue): 66%; survival rate ([1]; dose level 1 (20 mg/kg on day 0 and then thrice weekly), at completion of the experiment): 57%; survived to experiment completion ([1]; dose level 2 (100 mg/kg on day 0 only), day 28-32): 71%; weight loss ([1]; dose level 4 (100 mg/kg 3×/week)): greater weight loss than the control animals; skin irritation ([1]; dose level 4 (100 mg/kg 3×/week), SQ): evidence of skin irritation at the injection sites; hematologic toxicity in Phase I trials ([2]; Phase I trials): no significant hematologic toxicity; maximal tolerated dose (MTD) ([2]; one-hour intravenous infusions, three times a week, intermittent schedule): 60 mg/m^2; WBC ([3]; continuous infusion): 6300 µL⁻¹; hemoglobin or platelet recovery versus control ([3]; continuous infusion 10 mg/kg/week): no significant differences; marrow cellularity versus controls ([3]; day 28, dose level 3, femurs): no difference; WBC ([3]; day 28 post BMT, continuous infusion IP via Alzet pump at 10 mg/kg/wk, mean ± SEM): 6.3 ± 0.4 10^3/μL; WBC ([3]; day 28 post BMT, intermittent dosing, dose level 3, SQ three times/wk, mean ± SEM): 3.6 ± 0.7 10^3/μL; hemoglobin or platelet count versus control ([3]; intermittent (bolus) dosing): No statistical differences; mean white blood cell count ([3]; intermittent TNP-470): 3600 µL⁻¹; inhibition at 4 µg/mL ([4]; Homo sapiens, 336 h, TNP-470 4 μg/ml, myeloid and erythroid colonies, 14 days culture): > 80%; inhibition of colony-forming cells ([4]; higher doses than 4 μg/ml (range 0-100 μg/ml)): complete inhibition; effect on primary tumor and metastases (neuroblastoma cell lines): decreased the primary tumor volume and the size and number of lymph node and liver metastases
